The values below come from ChEMBL document CHEMBL1151549, “Design and synthesis of new taxol-containing aminophosphates as protaxols” (Bioorg Med Chem Lett, 1997).

Each structure is given as a SMILES string. ≈ marks a conversion by molar mass, not a printed value.

For this test, the system named is HL-60. Kind of test: Tested in vitro for the anticancer activity against HL-60 leukemia cells. The settings on record: Homo sapiens. Format: functional, cell-based.
A word on the IC50: it is the concentration needed to halve the response being measured. With `CC(=O)O[C@H]1C(=O)[C@@]2(C)[C@H]([C@H](OC(=O)c3ccccc3)[C@]3(O)C[C@H](OC(=O)[C@H](OP(=O)(O)OCCCN)[C@@H](NC(=O)c4ccccc4)c4ccccc4)C(C)=C1C3(C)C)[C@]1(OC(C)=O)CO[C@@H]1C[C@@H]2O`, half-maximal inhibition (IC50) required 4 µg/mL (≈ 4.04 µM).
Molecule `CC(=O)O[C@H]1C(=O)[C@@]2(C)[C@H]([C@H](OC(=O)c3ccccc3)[C@]3(O)C[C@H](OC(=O)[C@H](OP(=O)(O)OCCCCN)[C@@H](NC(=O)c4ccccc4)c4ccccc4)C(C)=C1C3(C)C)[C@]1(OC(C)=O)CO[C@@H]1C[C@@H]2O` yielded an IC50 of 0.3 µg/mL (≈ 0.299 µM).
In turn, `CC(=O)O[C@H]1C(=O)[C@@]2(C)[C@H]([C@H](OC(=O)c3ccccc3)[C@]3(O)C[C@H](OC(=O)[C@H](OP(=O)(O)OCCN)[C@@H](NC(=O)c4ccccc4)c4ccccc4)C(C)=C1C3(C)C)[C@]1(OC(C)=O)CO[C@@H]1C[C@@H]2O` had an IC50 of 0.8 µg/mL (≈ 0.819 µM).
For the molecule `CC(=O)O[C@H]1C(=O)[C@@]2(C)[C@H]([C@H](OC(=O)c3ccccc3)[C@]3(O)C[C@H](OC(=O)[C@H](O)[C@@H](NC(=O)c4ccccc4)c4ccccc4)C(C)=C1C3(C)C)[C@]1(OC(C)=O)CO[C@@H]1C[C@@H]2O` [PACLITAXEL], the IC50 came out at 0.001 µg/mL (≈ 0.00117 µM).
